By DC50 is commonly meant the concentration at which degradation of the target reaches its halfway point.

The text below walks through data of patent US20240366770A1, “DEGRADATION OF BRUTON'S TYROSINE KINASE (BTK) BY CONJUGATION OF BTK INHIBITORS WITH E3 LIGASE LIGAND AND METHODS OF USE” (BeiGene Switzerland GmbH, priority 2021, published 2024).

One experiment addresses T1, BTK (Homo sapiens, UniProt Q06187).
T1 construct: High control=Cell group with added DMSO and without compound, indicating microplate readings without BTK degradation; endogenous in cells; host or cells: TMD-8
In words: BTK degradation in TMD-8 cells (HTRF assay). It counts as cell-based. The conditions noted are these: 6 h treatment, IC50 (DC50) of BTK degradation. An outline of the steps: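 BTK remaining after compound treatment was measured by HTRF (337 nm excitation, 665/620 nm emission) in lysates of TMD-8 cells. Cells were exposed for 6 h to eight 6-fold-spaced concentrations in 0.2% DMSO. DC50 values were obtained from a Hill-equation fit (top, bottom, slope) of % inhibition.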

In another experiment the test system is HEK-293 cells. The experiment can be described thus: HEK-293 cytotoxicity detection (CellTiter-Glo). The format is cell-based. The conditions noted are these: Homo sapiens; HEK-293 cells, 72 h incubation, CellTiter-Glo luminescence, IC50 of cell proliferation inhibition; read-out: HEK293. The gist of the method:
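Four-parameter logistic fitting of percent inhibition versus concentration gives IC50. Luminescent ATP read-out (CellTiter-Glo) after 72 h compound treatment of HEK-293 cells, 8 doses in 4-fold steps from a 5 mM 500× DMSO stock, final DMSO 0.2%.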
For orientation: ATP-based viability assays read luminescence as a measure of living cells.

T1 sequence (Q06187 whole entry): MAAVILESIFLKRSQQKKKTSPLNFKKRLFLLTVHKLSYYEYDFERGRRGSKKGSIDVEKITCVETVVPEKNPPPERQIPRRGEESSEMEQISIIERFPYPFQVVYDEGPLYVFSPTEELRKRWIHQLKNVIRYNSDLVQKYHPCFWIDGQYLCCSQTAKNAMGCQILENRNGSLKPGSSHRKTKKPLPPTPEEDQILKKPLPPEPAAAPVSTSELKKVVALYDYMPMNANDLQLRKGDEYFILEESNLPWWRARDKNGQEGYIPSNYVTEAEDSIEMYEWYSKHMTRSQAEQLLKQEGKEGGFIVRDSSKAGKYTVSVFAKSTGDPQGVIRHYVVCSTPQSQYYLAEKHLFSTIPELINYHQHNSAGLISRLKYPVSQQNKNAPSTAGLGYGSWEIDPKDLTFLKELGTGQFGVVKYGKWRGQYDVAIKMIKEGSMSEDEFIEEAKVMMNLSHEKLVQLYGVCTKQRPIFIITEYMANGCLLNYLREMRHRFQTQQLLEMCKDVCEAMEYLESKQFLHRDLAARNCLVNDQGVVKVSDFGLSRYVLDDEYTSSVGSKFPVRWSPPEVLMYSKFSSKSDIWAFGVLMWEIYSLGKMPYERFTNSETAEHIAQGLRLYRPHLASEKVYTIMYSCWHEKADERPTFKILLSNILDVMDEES

At BTK, `C[C@H]1CC[C@@H](NC(=O)c2nc(C(C)(C)C)no2)CN1c1ncnc2[nH]c3cc(N4CCN(CC5CCN(c6ccc(N7CCC(=O)NC7=O)cc6)CC5)CC4)ccc3c12` [Example 129, 3-(tert-butyl)-N-((3R,6S)-1-(7-(4-((1-(4-(2,4-dioxotetrahydropyrimidin-1(2H)-yl)phenyl)piperidin-4-yl)methyl)piperazin-1-yl)-9H-pyrimido[4,5-b]indol-4-yl)-6-methylpiperidin-3-yl)-1,2,4-oxadiazole-5-carboxamide] came in with a DC50 greater than 2000 nM. For the same compound, the IC50 in the experiment on HEK-293 cells came out at 2040 nM.

In turn, `C[C@@H](NC(=O)c1nc(C(C)(C)C)no1)C1CCN(c2ncnc3[nH]c4cc(N5CCN(CC6CCN(c7ccc(N8CCC(=O)NC8=O)cc7)CC6)CC5)ccc4c23)CC1` [Example 130, (R)-3-(tert-butyl)-N-(1-(1-(7-(4-((1-(4-(2,4-dioxotetrahydropyrimidin-1(2H)-yl)phenyl)piperidin-4-yl)methyl)piperazin-1-yl)-9H-pyrimido[4,5-b]indol-4-yl)piperidin-4-yl)ethyl)-1,2,4-oxadiazole-5-carboxamide] had a DC50 at BTK of 63.2 nM. In the experiment on HEK-293 cells, the IC50 was greater than 10000 nM.

For `CC(C)(C)c1noc(C(=O)NC(C)(C)C2CCN(c3ncnc4[nH]c5cc(N6CCN(CC7CCN(c8ccc(N9CCC(=O)NC9=O)cc8)CC7)CC6)ccc5c34)CC2)n1` [Example 131, 3-(tert-butyl)-N-(2-(1-(7-(4-((1-(4-(2,4-dioxotetrahydropyrimidin-1(2H)-yl)phenyl)piperidin-4-yl)methyl)piperazin-1-yl)-9H-pyrimido[4,5-b]indol-4-yl)piperidin-4-yl)propan-2-yl)-1,2,4-oxadiazole-5-carboxamide], the 50% degradation concentration (DC50) on BTK is 27.5 nM. The IC50 with HEK-293 cells was greater than 10000 nM.

Take `Cc1cc(-c2ncnc3[nH]c4c(c23)CCC(N2CCN(CC3CCN(c5ccc(N6CCC(=O)NC6=O)cc5)CC3)CC2)C4)ccc1[C@@H](C)NC(=O)c1nc(C(C)(C)C)no1` (stereo partly drawn) [Example 132, 3-(tert-butyl)-N-((1R)-1-(4-(7-(4-((1-(4-(2,4-dioxotetrahydropyrimidin-1(2H)-yl)phenyl)piperidin-4-yl)methyl)piperazin-1-yl)-6,7,8,9-tetrahydro-5H-pyrimido[4,5-b]indol-4-yl)-2-methylphenyl)ethyl)-1,2,4-oxadiazole-5-carboxamide]: the DC50 on BTK is greater than 2000 nM. In addition, the IC50 in the experiment on HEK-293 cells was greater than 10000 nM.

Compound `Cc1cc(-c2ncnc3[nH]c4c(c23)CCC(N2CCN(C3CC(c5ccc([C@H]6CCC(=O)NC6=O)cc5)C3)CC2)C4)ccc1[C@@H](C)NC(=O)c1nc(C(C)(C)C)no1` (stereo partly drawn) [Example 133, 3-(tert-butyl)-N-((1R)-1-(4-(7-(4-(3-(4-((R)-2,6-dioxopiperidin-3-yl)phenyl)cyclobutyl)piperazin-1-yl)-6,7,8,9-tetrahydro-5H-pyrimido[4,5-b]indol-4-yl)-2-methylphenyl)ethyl)-1,2,4-oxadiazole-5-carboxamide] showed a DC50 on BTK greater than 2000 nM. In addition, the IC50 with HEK-293 cells was greater than 10000 nM.
